Laboratory results as given in US12403184B2, “Compositions and methods for treating neurodegenerative disroders” (priority 2018, dated 2025).
Where no end group is shown, it is not given here.

Tests used:
[1] = molecular target: T1, Drp1/ATAD3A (Mus musculus, UniProt Q925I1); experiment: Immunoprecipitation of Drp1/ATAD3A binding in mouse striatal cells; format: cell-based
T1 construct: The total lysates of cells or mouse striatum were subject to IP analysis; endogenous in cells; host or cells: HdhQ7 / HdhQ111 mouse striatal cells; wild-type mouse striatal cells exposed to 3-NP
T1 sequence (Q925I1 2-591 limits assumed): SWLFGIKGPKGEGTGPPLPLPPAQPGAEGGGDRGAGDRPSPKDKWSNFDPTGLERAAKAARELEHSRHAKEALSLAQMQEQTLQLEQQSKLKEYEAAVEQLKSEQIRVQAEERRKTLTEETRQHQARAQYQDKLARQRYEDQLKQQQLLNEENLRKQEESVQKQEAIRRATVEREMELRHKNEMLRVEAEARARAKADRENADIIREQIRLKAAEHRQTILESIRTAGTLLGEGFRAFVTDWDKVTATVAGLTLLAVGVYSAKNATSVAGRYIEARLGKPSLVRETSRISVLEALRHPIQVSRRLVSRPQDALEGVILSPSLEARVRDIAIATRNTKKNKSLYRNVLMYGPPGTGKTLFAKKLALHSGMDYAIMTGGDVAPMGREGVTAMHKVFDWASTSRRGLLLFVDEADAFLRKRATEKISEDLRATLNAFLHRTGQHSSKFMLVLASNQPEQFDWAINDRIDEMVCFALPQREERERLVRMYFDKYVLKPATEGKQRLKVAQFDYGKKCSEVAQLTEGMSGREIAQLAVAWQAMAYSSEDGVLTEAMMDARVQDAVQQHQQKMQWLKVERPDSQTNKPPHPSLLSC
Method: Cells and mouse brain tissues were harvested and lysed in total lysis buffer ([…], pH 7.9, […], […], 1% Triton X-100, and protease inhibitor cocktail) for 30 mins on ice and centrifuged at 12,000×g for 10 min at 4° C. The supernatants were incubated with the indicated primary antibodies or control IgG (sc-2025 and sc-2027, Santa Cruz Biotechnology) overnight at 4° C., followed by incubation with protein A/G beads (sc-2003, Santa Cruz Biotechnology) for 2 h at 4° C. The immunoprecipitates were washed with lysis buffer three times for a total of 30 min and then subject to WB analysis.

[2] = molecular target: T2, ATAD3A (Mus musculus, UniProt Q925I1); experiment: ATAD3A dimerization by western blot, Neuro2A cells; format: cell-based; settings: Neuro2a cells exposed to 3-NP, non-reducing conditions
T2 construct: endogenous in cells; host or cells: Neuro2A cells
T2 sequence (Q925I1 1-591): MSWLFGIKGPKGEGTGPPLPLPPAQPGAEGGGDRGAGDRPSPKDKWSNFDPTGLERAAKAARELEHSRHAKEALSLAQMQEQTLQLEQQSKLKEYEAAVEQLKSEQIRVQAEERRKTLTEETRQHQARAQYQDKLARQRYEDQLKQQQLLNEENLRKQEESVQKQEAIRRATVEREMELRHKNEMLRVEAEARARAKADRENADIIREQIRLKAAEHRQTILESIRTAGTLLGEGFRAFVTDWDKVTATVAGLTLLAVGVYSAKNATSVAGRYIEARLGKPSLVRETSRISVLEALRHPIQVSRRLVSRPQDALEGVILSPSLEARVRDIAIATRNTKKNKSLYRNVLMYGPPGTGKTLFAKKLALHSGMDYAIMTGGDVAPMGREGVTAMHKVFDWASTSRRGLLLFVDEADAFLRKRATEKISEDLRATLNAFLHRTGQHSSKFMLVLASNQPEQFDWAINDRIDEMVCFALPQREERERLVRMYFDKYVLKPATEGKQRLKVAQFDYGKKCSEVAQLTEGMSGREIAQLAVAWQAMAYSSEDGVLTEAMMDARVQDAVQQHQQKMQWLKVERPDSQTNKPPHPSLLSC
Method: To analyze dimerization of ATAD3A under non-reducing conditions, the cells or tissues were harvested and lysed with total lysates buffer. An equal amount of proteins was subject to 8% SDS-PAGE analysis in the presence or absence of β-mercaptoethanol (β-ME). For in vitro BMH crosslinking, the cell lysates were incubated with 1 mM BMH at r.t. for up to 25 min and quenched with 0.1% β-ME, followed by SDS-PAGE analysis. For in-vivo crosslinking, the cells were treated with cell-permeable crosslinker BMH (1 mM) for 20 min at 37° C. After crosslinking, the cells were quenched in PBS with 0.1% β-ME. For DSP crosslinking, the cells were treated with cell-permeable crosslinker for 5 min at 37° C., followed by quenching and washing with 10 mM Glycine in PBS. For formaldehyde (FA) crosslinking, the cells were incubated with PBS buffer containing 1% FA for 20 min at r.t., and the crosslinking reaction was terminated by washing in PBS containing 100 mM glycine. The cells were then lysed and subject to 8% SDS-PAGE analysis. For DTSSP crosslinking of proteins in mitochondrial fractions, isolated mitochondria samples were suspended in the mitochondrial lysis buffer (250 mM sucrose, 20 mM HEPES-NaOH, pH 7.5, 10 mM KCl, 1.5 mM MgCl2, 1 mM EDTA, 1 mM EGTA and protease inhibitor). An equal amount of crude mitochondria was incubated at 30° C. in the presence of 0.5 mM DTSSP. […]

| Compound | binding of Drp1/ATAD3A ([1]; HdhQ111 cells, peptide 1 μM/day for 4 days, vs TAT) | interaction between Drp1 and ATAD3A ([1]; wildtype mouse striatal cells, 3-NP 5 mM for 4 h) | ATAD3A dimerization [2] |
| --- | --- | --- | --- |
| YGRKKRRQRRR-GG-EERRKT-NH2 (YGRKKRRQRRRGGEERRKT-NH2) [DA2, peptide from ATAD3A coiled-coil region homologous to Drp1, conjugated to TAT47-57] | a trend toward inhibition | – | – |
| O=C(O)CC[N+](=O)[O-] [3-NP, 3-nitropropionic acid, reference compound] | – | induced | increased |
